# From publication PMC6175823, “Identification of novel acetylcholinesterase inhibitors designed by pharmacophore-based virtual screening, molecular docking and bioassay” (Scientific Reports, 2018)
# “Also recorded” adds a separate entry of the source.
# Biological target: T1, horse butyrylcholinesterase (Equus caballus, UniProt P81908)
# T1 construct: purchased Sigma (St. Louis, MO)
# Assay: biochemical
# Format: biochemical
# Conditions: modified Ellman's method, horse BuChE; read-out: bAchE IC50
# Excerpt: Acetylcholinesterase from electrophorus electricus (electric eel), horse butyrylcholinesterase, Acetylcholine iodide, S-butyrylthiocholine chloride and 5,5′-dithio-bis-nitrobenzoic acid (DTNB) were purchased from the Sigma (St. Louis, MO) while bovine serum albumin (BSA) purchased from Research and Diagnostic Technology (RDT). Buffers and other chemicals were purchases from pure chemicals as a pure experimental grade. All the reagents and experimental conditions were same as described by previous reports. […] Acetylcholinesterase and butyrylcholinesterase inhibition was performed spectrometrically using acetylthiocholine and butyrylthiocholine as a substrate. Experiment was performed with slight modification in the method described by Ellman et al.[78]. Then, […] sodium phosphate buffer (pH 8.0), enzyme preparation and different concentration of test compound was mixed and incubated for 30 min followed by the addition of DTNB and the reactions was initiated by adding respective enzyme substrate like acetylthiocholine iodide, butyrylthiocholine chloride for Acetylcholinesterase and butyrylcholinesterase inhibition assay respectively. The hydrolysis of acetylthiocholine or butyrylthiocholineyield a dark yellow 5-thio-2-nitrobenzoate anion because of the reaction between DTNB with enzyme and enzyme substrate. […] Solvent used for compound dilution was used for the negative control. Percentage inhibition was calculated taking negative control as 100%.
# T1 sequence (P81908 whole entry): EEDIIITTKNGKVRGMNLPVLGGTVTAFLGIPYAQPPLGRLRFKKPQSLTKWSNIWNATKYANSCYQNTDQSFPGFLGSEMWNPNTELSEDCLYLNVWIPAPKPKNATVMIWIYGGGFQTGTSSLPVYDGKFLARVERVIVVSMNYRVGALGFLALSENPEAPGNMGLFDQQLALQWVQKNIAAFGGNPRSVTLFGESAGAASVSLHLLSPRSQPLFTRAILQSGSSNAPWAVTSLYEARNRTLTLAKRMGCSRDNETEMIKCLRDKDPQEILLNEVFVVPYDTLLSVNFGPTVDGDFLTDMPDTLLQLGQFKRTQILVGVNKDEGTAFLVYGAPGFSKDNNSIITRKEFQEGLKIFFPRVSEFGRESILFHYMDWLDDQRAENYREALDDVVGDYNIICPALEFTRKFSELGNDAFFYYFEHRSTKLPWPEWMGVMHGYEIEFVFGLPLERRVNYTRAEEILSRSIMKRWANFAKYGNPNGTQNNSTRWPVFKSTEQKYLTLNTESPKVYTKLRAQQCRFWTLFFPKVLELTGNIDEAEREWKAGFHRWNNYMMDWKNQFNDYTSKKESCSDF
row,SMILES,IC50
1,"COc1ccccc1OCCN(CC(=O)CC(O)c1cccc(-c2ccccc2)c1)Cc1ccccc1 (centres unmarked) [5c, 4-([1,1′-biphenyl]-3-yl)-1-(benzyl(2-(2-methoxyphenoxy)ethyl)amino)-4-hydroxybutan-2-one]",> 500 µM

# Same assay, conditions: result in words
row,SMILES,effect against BchE
1,"COc1ccccc1OCCN(CC(=O)CC(O)c1cccc(-c2ccccc2)c1)Cc1ccccc1 (centres unmarked) [5c, 4-([1,1′-biphenyl]-3-yl)-1-(benzyl(2-(2-methoxyphenoxy)ethyl)amino)-4-hydroxybutan-2-one]",without inhibiting; also recorded: did not showed the effect

# System: AChE
# Assay: not given
# Conditions: ChEMBL dataset, Ellman assay ref 43; cited from earlier work
row,SMILES,Exp. pIC50
1,O=C1c2ccccc2C(=O)N1CCC1CCN(Cc2ccccc2)CC1 [CHEMB L106891],7.097
2,O=C(CCC1CCN(Cc2ccccc2)CC1)c1ccc2c(c1)NCCC2 [CHEMBL73593],6.785
3,O=C(CCC1CCN(Cc2ccccc2)CC1)c1ccc2c(c1)CCN2 [CHEMBL75110],7.699
4,CN1CCCc2ccc(C(=O)CCC3CCN(Cc4ccccc4)CC3)cc21 [CHEMBL76470],7.444
5,N#Cc1ccc2c(CCC3CCN(Cc4ccccc4)CC3)noc2c1 [CHEMBL92775],6.996
6,Cc1cc(-c2ccccc2)n[nH]c1=NCCC1CCN(Cc2ccccc2)CC1 [CHEMBL94054],6.495
7,O=C1Cc2c(ccc3c(CCC4CCN(Cc5ccccc5)CC4)noc23)N1 [CHEMBL95020],8.444
8,O=C1c2ccc([N+](=O)[O-])cc2C(=O)N1CCC1CCN(Cc2ccccc2)CC1 [CHEMBL105874],7.903
9,O=C(c1ccc([N+](=O)[O-])cc1)N(CCC1CCN(Cc2ccccc2)CC1)c1ccccc1 [CHEMBL126354],8.268
10,COc1cccc(N(CCC2CCN(Cc3ccccc3)CC2)C(C)=O)c1 [CHEMBL127527],7.337
11,O=C(Nc1ccc2c(c1)C(=O)N(CCC1CCN(Cc3ccccc3)CC1)C2=O)c1ccccc1 [CHEMBL138107],8.921
12,Nc1cccc2c1C(=O)N(CCC1CCN(Cc3ccccc3)CC1)C2=O [CHEMBL138442],7.959
13,O=c1[nH]c2cc(Cl)ccc2c(=O)n1CCC1CCN(Cc2ccccc2)CC1 [CHEMBL138552],8.347
14,O=C1c2cccnc2C(=O)N1CCC1CCN(Cc2ccccc2)CC1 [CHEMBL140106],7.886
15,O=c1c2ccccc2ncn1CCC1CCN(Cc2ccccc2)CC1 [CHEMBL140328],5.921
16,O=C(c1ccc(F)cc1)N(CCC1CCN(Cc2ccccc2)CC1)c1ccccc1 [CHEMBL140737],7.745
17,COc1ccc2c(c1)C(=O)N(CCC1CCN(Cc3ccccc3)CC1)C2=O [CHEMBL140770],8.097
18,O=C1Cc2ccccc2CN1CCC1CCN(Cc2ccccc2)CC1 [CHEMBL140990],7.77
19,O=C(c1ccccc1)c1ccc2c(c1)C(=O)N(CCC1CCN(Cc3ccccc3)CC1)C2=O [CHEMBL140999],8.62
20,O=C1c2cccc([N+](=O)[O-])c2C(=O)N1CCC1CCN(Cc2ccccc2)CC1 [CHEMBL141001],8.046
21,O=C1Cc2ccccc2C(=O)N1CCC1CCN(Cc2ccccc2)CC1 [CHEMBL141042],7.638
22,CC(=O)N(CCC1CCN(Cc2ccccc2)CC1)c1cccc(F)c1 [CHEMBL141167],7.187

row,SMILES,Exp. pIC50
1,O=c1c2ccccc2ccn1CCC1CCN(Cc2ccccc2)CC1 [CHEMBL141203],5.959
2,O=C1Nc2ccccc2CN1CCC1CCN(Cc2ccccc2)CC1 [CHEMBL141276],7.886
3,O=C(Nc1cccc2c1C(=O)N(CCC1CCN(Cc3ccccc3)CC1)C2=O)c1ccccc1 [CHEMBL141622],6.469
4,COc1ccc(N(CCC2CCN(Cc3ccccc3)CC2)C(C)=O)cc1 [CHEMBL141801],6.155
5,O=C1c2ccccc2NCN1CCC1CCN(Cc2ccccc2)CC1 [CHEMBL141810],6.097
6,CCC(=O)N(CCC1CCN(Cc2ccccc2)CC1)c1ccccc1 [CHEMBL141853],6.081
7,COc1ccc(C(=O)N(CCC2CCN(Cc3ccccc3)CC2)c2ccccc2)cc1 [CHEMBL141873],6.229
8,O=C1c2ccccc2CCN1CCC1CCN(Cc2ccccc2)CC1 [CHEMBL142014],6
9,O=C(CCC1CCN(Cc2ccccc2Cl)CC1)c1ccc2c(c1)CCN2 [CHEMBL306175],7.119
10,Cc1cccc(CN2CCC(CCC(=O)c3ccc4c(c3)CCN4)CC2)c1 [CHEMBL306179],7.301
11,COc1ccccc1CN1CCC(CCC(=O)c2ccc3c(c2)CCN3)CC1 [CHEMBL306776],6.09
12,CCCN1CCCCc2ccc(C(=O)CCC3CCN(Cc4ccccc4)CC3)cc21 [CHEMBL307513],5.876
13,O=C(CCC1CCN(Cc2cccc([N+](=O)[O-])c2)CC1)c1ccc2c(c1)NCCCC2 [CHEMBL307832],6.409
14,O=C(CCC1CCN(Cc2cccc(F)c2)CC1)c1ccc2c(c1)NCCCC2 [CHEMBL308093],6.839
15,CCN1CCc2cc(C(=O)CCC3CCN(Cc4ccccc4)CC3)ccc21 [CHEMBL308793],7.959
16,O=C(CCC1CCN(Cc2cccc(F)c2)CC1)c1ccc2c(c1)CCN2 [CHEMBL308807],7.796
17,COc1ccccc1CN1CCC(CCC(=O)c2ccc3c(c2)NCCCC3)CC1 [CHEMBL309173],5.576
18,CCN1CCCCc2ccc(C(=O)CCC3CCN(Cc4ccccc4)CC3)cc21 [CHEMBL310467],6.425
19,CN1CCc2cc(C(=O)CCC3CCN(Cc4ccccc4)CC3)ccc21 [CHEMBL311017],8
20,O=C1Cc2cc3onc(CCC4CCN(Cc5ccccc5)CC4)c3cc2N1 [CHEMBL328468],9.022
21,O=C1CCc2cc3c(CCC4CCN(Cc5ccccc5)CC4)noc3cc2N1 [CHEMBL329231],9.244
22,Brc1ccc2c(CCC3CCN(Cc4ccccc4)CC3)noc2c1 [CHEMBL330004],7.301

row,SMILES,Exp. pIC50
1,O=C1c2ccccc2CN1CCC1CCN(Cc2ccccc2)CC1 [CHEMBL333909],7.009
2,O=C(c1ccncc1)N(CCC1CCN(Cc2ccccc2)CC1)c1ccccc1 [CHEMBL340621],7.194
3,O=C1Cc2cc3c(CCC4CCN(Cc5ccccc5)CC4)noc3cc2N1 [CHEMBL359570],9.481
4,O=C(CCC1CCN(Cc2cccc(Cl)c2)CC1)c1ccc2c(c1)NCCCC2 [CHEMBL420378],6.478
5,Cc1ccc2onc(CCC3CCN(Cc4ccccc4)CC3)c2c1 [CHEMBL433379],8.108
6,CC(=O)Nc1ccc2c(c1)C(=O)N(CCC1CCN(Cc3ccccc3)CC1)C2=O [CHEMBL433678],8.553
7,O=C(CCC1CCN(Cc2ccccc2)CC1)c1ccc2c(c1)OCO2 [CHEMBL1082434],7.523
8,CCn1c(C)nc2cc(C(=O)CCC3CCN(Cc4ccccc4)CC3)ccc21 [CHEMBL1082435],8.367
9,O=C(CCC1CCN(Cc2ccccc2)CC1)c1ccc2[nH]c(-c3ccccc3)nc2c1 [CHEMBL1082436],7.481
10,CN(CCCCCNc1ccc(-c2ccccc2)nn1)Cc1ccccc1 [CHEMBL1083057],6.131
11,c1ccc(CN2CCC(Nc3ccc(-c4ccccc4)nn3)CC2)cc1 [CHEMBL1083058],4.187
12,c1ccc(CN2CCC(CNc3ccc(-c4ccccc4)nn3)CC2)cc1 [CHEMBL1083367],4.252
13,CN1CCCc2cc(C(=O)CCC3CCN(Cc4ccccc4)CC3)ccc21 [CHEMBL1083660],7.62
14,O=C(CCC1CCN(Cc2ccccc2)CC1)c1ccc2c(c1)CCCN2 [CHEMBL1083661],7.268
15,O=C(CCC1CCN(Cc2ccccc2)CC1)c1ccc2c(c1)CCCN2c1ccccc1 [CHEMBL1083662],7.268
16,O=C(Nc1ccccc1)c1ccc2c(c1)C(=O)N(CCC1CCN(Cc3ccccc3)CC1)C2=O [CHEMBL1084256],8.658
17,CN(CCCCNc1ccc(-c2ccccc2)nn1)Cc1ccccc1 [CHEMBL1084257],4.959
18,Cc1nc2ccc(C(=O)CCC3CCN(Cc4ccccc4)CC3)cc2s1 [CHEMBL1084275],8.167
19,Cc1nc2ccc(C(=O)CCC3CCN(Cc4ccccc4)CC3)cc2[nH]1 [CHEMBL1084790],7.921
20,O=C(CCC1CCN(Cc2ccccc2)CC1)c1ccc2c(c1)CCN2c1ccccc1 [CHEMBL1085858],7.167
21,CN(CCNc1ccc(-c2ccccc2)nn1)Cc1ccccc1 [CHEMBL1086185],3.77

# Biological target: T2, Acetylcholinesterase from electrophorus electricus (electric eel) (Electrophorus electricus, UniProt O42275)
# T2 construct: purchased Sigma (St. Louis, MO)
# Assay: biochemical
# Conditions: modified Ellman's method, eeAChE; read-out: AchE IC50
# Excerpt: Acetylcholinesterase from electrophorus electricus (electric eel), horse butyrylcholinesterase, Acetylcholine iodide, S-butyrylthiocholine chloride and 5,5′-dithio-bis-nitrobenzoic acid (DTNB) were purchased from the Sigma (St. Louis, MO) while bovine serum albumin (BSA) purchased from Research and Diagnostic Technology (RDT). Buffers and other chemicals were purchases from pure chemicals as a pure experimental grade. All the reagents and experimental conditions were same as described by previous reports. […] Acetylcholinesterase and butyrylcholinesterase inhibition was performed spectrometrically using acetylthiocholine and butyrylthiocholine as a substrate. Experiment was performed with slight modification in the method described by Ellman et al.[78]. Then, […] sodium phosphate buffer (pH 8.0), enzyme preparation and different concentration of test compound was mixed and incubated for 30 min followed by the addition of DTNB and the reactions was initiated by adding respective enzyme substrate like acetylthiocholine iodide, butyrylthiocholine chloride for Acetylcholinesterase and butyrylcholinesterase inhibition assay respectively. The hydrolysis of acetylthiocholine or butyrylthiocholineyield a dark yellow 5-thio-2-nitrobenzoate anion because of the reaction between DTNB with enzyme and enzyme substrate. […] Percentage inhibition was calculated taking negative control as 100%.
# T2 sequence (O42275 24-633): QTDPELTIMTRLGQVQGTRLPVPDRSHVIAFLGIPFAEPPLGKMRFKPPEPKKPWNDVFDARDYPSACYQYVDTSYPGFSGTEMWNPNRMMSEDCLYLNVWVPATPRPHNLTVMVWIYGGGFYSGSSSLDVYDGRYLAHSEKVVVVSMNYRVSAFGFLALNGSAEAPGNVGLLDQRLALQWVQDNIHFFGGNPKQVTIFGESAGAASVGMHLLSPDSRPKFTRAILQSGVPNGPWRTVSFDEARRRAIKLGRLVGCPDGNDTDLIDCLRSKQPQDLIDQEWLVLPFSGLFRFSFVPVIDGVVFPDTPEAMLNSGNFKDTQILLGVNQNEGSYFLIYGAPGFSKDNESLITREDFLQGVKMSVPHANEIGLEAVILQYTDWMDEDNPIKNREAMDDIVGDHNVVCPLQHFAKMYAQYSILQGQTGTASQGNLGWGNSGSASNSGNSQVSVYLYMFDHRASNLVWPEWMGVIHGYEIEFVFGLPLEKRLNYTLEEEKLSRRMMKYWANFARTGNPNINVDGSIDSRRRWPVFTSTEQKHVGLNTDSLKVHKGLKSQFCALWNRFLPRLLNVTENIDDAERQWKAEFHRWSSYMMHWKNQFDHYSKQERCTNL
row,SMILES,IC50
1,"COc1ccccc1OCCN(CC(=O)CC(O)c1cccc(-c2ccccc2)c1)Cc1ccccc1 (centres unmarked) [5c, 4-([1,1′-biphenyl]-3-yl)-1-(benzyl(2-(2-methoxyphenoxy)ethyl)amino)-4-hydroxybutan-2-one]",58.3 µM
